# pIC50: −log10 of the molar value. Activity calls are given as the source filed them. No cut-off for these calls is given here.
# Key:
# [1] = test system: K562; assay: Potentiation factor, ratio of IC50 for human K562 cells to IC50 for human K562 cells in presence of gemcitabine; assay type: functional
# [2] = test system: COLO 205; assay: Antitumor activity against human COLO 205 cells xenografted in athymic nude mouse model assessed as tumor growth delay by measuring test to control tumor ratio at 30 mg/kg, ip administered once daily in presence of gemcitabine (Gemcitabine alone = 3%); assay type: functional
# [3] = test system: HT-29; assay: Potentiation factor, ratio of IC50 for human HT-29 cells to IC50 for human HT-29 cells in presence of gemcitabine; assay type: functional
# [4] = test system: HT-29; assay: Cytotoxicity in human HT-29 cells assessed as cell survival at 540 nM measured after 4 to 48 hrs by coulter counter method relative to control; assay type: functional; conditions: time 4-48 hrs, read-out: Activity
# [5] = test system: HT-29; assay: Induction of apoptosis in gemcitabine induced human HT-29 cells assessed as apoptotic cell death measured after 24 hrs by PI staining based flow cytometry analysis (reference value: 0.7%); assay type: functional
# [6] = test system: HT-29; assay: Induction of apoptosis in gemcitabine induced human HT-29 cells assessed as apoptotic cell death measured after 48 hrs by PI staining based flow cytometry analysis (reference value: 8.6%); assay type: functional
# [7] = Cmax in nu/nu mouse at 4 mg/kg, ip by LCMS analysis; assay type: ADME, organism-based; conditions: in vivo
# [8] = test system: COLO 205; assay: Antitumor activity against human COLO 205 cells xenografted in athymic nude mouse model assessed as gross log cell kill at 15 mg/kg, ip administered once daily in presence of gemcitabine (Gemcitabine alone = 0.27%); assay type: functional
# [9] = test system: COLO 205; assay: Antitumor activity against human COLO 205 cells xenografted in athymic nude mouse model assessed as potentiated tumor growth inhibition at 7.5 mg/kg, ip administered once daily in presence of gemcitabine relative to control; assay type: functional; conditions: read-out: TGI
# [10] = test system: MDA-MB-231; assay: Potentiation factor, ratio of IC50 for human MDA-MB-231 cells to IC50 for human MDA-MB-231 cells in presence of mytomicin-C; assay type: functional
# [11] = test system: COLO 205; assay: In vivo inhibition of Chk1 in athymic nude mouse xenografted with gemcitabine treated human COLO 205 cells assessed as increase in histone H3 phosphorylation level at Ser10 residues at 7.5 to 15 mg/kg by immunohistochemical analysis; assay type: functional, organism-based; conditions: dose 7.5-15 mg/kg
# [12] = test system: PC-3; assay: Potentiation factor, ratio of IC50 for human PC-3 cells to IC50 for human PC-3 cells in presence of SN-38; assay type: functional
# [13] = test system: MDA-MB-231; assay: Potentiation factor, ratio of IC50 for human MDA-MB-231 cells to IC50 for human MDA-MB-231 cells in presence of SN-38; assay type: functional
# [14] = test system: HT-29; assay: Potentiation of camptothecin induced cytotoxicity in human HT-29 cells assessed as cell survival at 360 nM measured after 4 to 48 hrs by coulter counter method relative to camptothecin alone; assay type: functional; conditions: time 4-48 hrs, read-out: Activity
# [15] = test system: COLO 205; assay: Antitumor activity against human COLO 205 cells xenografted in athymic nude mouse model assessed as tumor growth delay by measuring test to control tumor ratio at 30 mg/kg, ip administered twice daily in presence of gemcitabine (Gemcitabine alone = 3%); assay type: functional
# [16] = test system: COLO 205; assay: Antitumor activity against human COLO 205 cells xenografted in athymic nude mouse model assessed as potentiated tumor growth inhibition at 4 mg/kg, ip administered twice daily in presence of gemcitabine relative to control; assay type: functional; conditions: read-out: TGI
# [17] = biological target: Macrophage colony-stimulating factor 1 receptor (Homo sapiens, UniProt P07333); assay: Inhibition of Fms (unknown origin)
# [18] = test system: COLO 205; assay: Antitumor activity against human COLO 205 cells xenografted in athymic nude mouse model assessed as tumor growth inhibition at 15 mg/kg, ip administered twice daily in presence of gemcitabine (Gemcitabine alone = 40%); assay type: functional; conditions: read-out: TGI
# [19] = test system: K562; assay: Antiproliferative activity against human K562 cells deficit of p53 expression assessed as inhibition of cell growth measured after 96 hrs by MTT assay; assay type: functional, cell-based; conditions: K562, 96 h
# [20] = test system: COLO 205; assay: Potentiation factor, ratio of IC50 for human COLO 205 cells to IC50 for human COLO 205 cells in presence of carboplatin; assay type: functional
# [21] = test system: COLO 205; assay: Potentiation factor, ratio of IC50 for human COLO 205 cells to IC50 for human COLO 205 cells in presence of mytomicin-C; assay type: functional
# [22] = test system: PC-3; assay: Potentiation factor, ratio of IC50 for human PC-3 cells to IC50 for human PC-3 cells in presence of gemcitabine; assay type: functional
# [23] = test system: COLO 205; assay: Antitumor activity against human COLO 205 cells xenografted in athymic nude mouse model assessed as tumor growth delay by measuring test to control tumor ratio at 4 mg/kg, ip administered twice daily in presence of gemcitabine (Gemcitabine alone= 8%); assay type: functional
# [24] = test system: COLO 205; assay: Antitumor activity against human COLO 205 cells xenografted in athymic nude mouse model assessed as tumor growth delay by measuring test to control tumor ratio at 7.5 mg/kg, ip administered once daily in presence of gemcitabine (Gemcitabine alone = 3%); assay type: functional
# [25] = test system: HT-29; assay: Inhibition of gemcitabine induced cell cycle arrest in human HT-29 cells assessed as disappearance of cyclin B level at 360 nM measured after 24 hrs by immunoblot analysis relative to control; assay type: functional
# [26] = test system: COLO 205; assay: Potentiation factor, ratio of IC50 for human COLO 205 cells to IC50 for human COLO 205 cells in presence of doxorubicin; assay type: functional
# [27] = test system: COLO 205; assay: Antitumor activity against human COLO 205 cells xenografted in athymic nude mouse model assessed as potentiated tumor growth inhibition at 40 mg/kg, ip administered twice daily in presence of gemcitabine relative to control; assay type: functional; conditions: read-out: TGI
# Macrophage colony-stimulating factor 1 receptor, sequence (P07333 whole entry): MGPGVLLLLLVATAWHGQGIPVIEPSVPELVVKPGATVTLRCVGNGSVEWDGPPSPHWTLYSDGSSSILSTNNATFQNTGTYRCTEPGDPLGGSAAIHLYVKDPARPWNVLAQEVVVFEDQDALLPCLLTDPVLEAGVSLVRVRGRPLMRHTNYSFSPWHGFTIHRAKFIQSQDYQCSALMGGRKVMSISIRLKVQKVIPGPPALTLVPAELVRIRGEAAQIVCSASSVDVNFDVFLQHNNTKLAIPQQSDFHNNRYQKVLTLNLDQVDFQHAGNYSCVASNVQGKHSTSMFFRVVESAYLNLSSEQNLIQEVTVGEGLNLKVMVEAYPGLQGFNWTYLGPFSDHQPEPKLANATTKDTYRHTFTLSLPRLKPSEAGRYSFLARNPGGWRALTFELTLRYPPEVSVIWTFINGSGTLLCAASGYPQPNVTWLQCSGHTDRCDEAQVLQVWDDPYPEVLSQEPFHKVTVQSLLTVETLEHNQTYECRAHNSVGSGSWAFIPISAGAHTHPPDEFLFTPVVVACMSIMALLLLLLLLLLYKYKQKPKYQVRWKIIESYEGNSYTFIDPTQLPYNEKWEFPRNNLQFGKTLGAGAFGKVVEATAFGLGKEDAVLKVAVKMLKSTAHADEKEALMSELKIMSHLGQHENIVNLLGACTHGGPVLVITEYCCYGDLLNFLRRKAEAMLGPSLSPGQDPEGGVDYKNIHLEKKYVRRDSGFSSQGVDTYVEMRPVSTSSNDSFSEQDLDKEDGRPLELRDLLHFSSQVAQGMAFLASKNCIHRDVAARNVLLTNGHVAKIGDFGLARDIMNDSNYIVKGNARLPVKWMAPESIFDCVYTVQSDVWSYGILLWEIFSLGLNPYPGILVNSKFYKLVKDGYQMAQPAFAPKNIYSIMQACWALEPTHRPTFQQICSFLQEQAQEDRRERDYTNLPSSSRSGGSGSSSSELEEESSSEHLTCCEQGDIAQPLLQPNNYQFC
compound,measurement,setting,value
Cn1cc(-c2[nH]c3cc(NC(=O)[C@H](N)C4CCCCC4)cc4c3c2C=NNC4=O)cn1,PF50,[1],5.6
same,T/C,[2],7.25
same,PF50,[3],9
same,viability at 0.54 µM,[4],83%
same,Activity,[5],5.2%
same,Activity,[6],78.6%
same,Cmax,[7],270 ng/mL
same,LCK,[8],0.71
same,inhibition in vivo at 7.5 mg/kg,[9],23%
same,PF50,[10],1.2
same,inhibition,[11],Active
same,PF50,[12],1.3
same,PF50,[13],2.4
same,viability at 0.36 µM,[14],84%
same,T/C,[15],9.75
same,inhibition in vivo at 4 mg/kg,[16],12%
same,pIC50,[17],7.70
same,inhibition in vivo at 15 mg/kg,[18],66%
same,pIC50,[19],6.38
same,PF50,[20],5.4
same,PF50,[21],5.3
same,PF50,[22],12.2
same,T/C,[23],8
same,T/C,[24],5.75
same,inhibition at 0.36 µM,[25],100%
same,PF50,[26],1.1
same,inhibition in vivo at 40 mg/kg,[27],75%
